Consider 14 compounds from patent US20080171737A1 (Wyeth, priority 2006, published 2008).

T1 sequence (P23975 whole entry): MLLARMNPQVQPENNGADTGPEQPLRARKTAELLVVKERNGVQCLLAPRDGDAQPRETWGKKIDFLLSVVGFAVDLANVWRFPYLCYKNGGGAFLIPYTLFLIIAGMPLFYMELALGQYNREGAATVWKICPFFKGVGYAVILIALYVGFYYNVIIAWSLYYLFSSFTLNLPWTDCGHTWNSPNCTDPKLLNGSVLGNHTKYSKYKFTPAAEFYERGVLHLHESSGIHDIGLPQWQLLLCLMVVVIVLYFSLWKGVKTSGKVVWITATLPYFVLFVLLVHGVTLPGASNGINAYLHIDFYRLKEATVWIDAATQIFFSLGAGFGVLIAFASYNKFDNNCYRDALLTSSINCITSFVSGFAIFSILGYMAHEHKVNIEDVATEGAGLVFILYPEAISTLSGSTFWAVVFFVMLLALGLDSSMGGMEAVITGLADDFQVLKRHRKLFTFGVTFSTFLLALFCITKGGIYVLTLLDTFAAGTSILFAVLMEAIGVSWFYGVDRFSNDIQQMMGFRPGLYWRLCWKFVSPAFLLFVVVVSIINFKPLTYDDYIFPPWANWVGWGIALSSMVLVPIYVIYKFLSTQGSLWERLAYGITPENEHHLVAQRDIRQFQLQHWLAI

The first test has as its target T1, human hNET (Homo sapiens, UniProt P23975).
T1 construct: expressed in transfected cells; host or cells: MDCK-Net6 (MDCK cells stably transfected with hNET)
The test can be described thus: Functional norepinephrine reuptake assay, Procedure B (6,000 cells/well). It counts as cell-based. To be noted: MDCK-Net6 cells, 6,000 cells/well, 16 nM 3H-norepinephrine; read-out: Procedure B hNET uptake IC50. Summed up:
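MDCK cells stably expressing human NET, 6,000 cells/well, in HEPES-buffered saline pH 7.4 with ascorbic acid and 1 μM pargyline; compound preincubated 5 min at 37° C. ^3H norepinephrine uptake counted by scintillation; non-specific defined with 20 μM desipramine. IC50 from variable-slope sigmoidal nonlinear fit.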
Turning to `CNCCCC1Oc2ccccc2N(c2ccccc2)S1(=O)=O` (stereo not shown) [Example 12, 3-(2,2-dioxido-1-phenyl-1H-4,2,1-benzoxathiazin-3-yl)-N-methylpropan-1-amine], the half-inhibitory concentration (IC50) (usually the concentration that inhibits the measured activity by half) stood at 0.7 nM.
Regarding `CNCCCC1Cc2ccccc2N(c2ccccc2)S1(=O)=O` (stereo not shown) [Example 1, 3-(2,2-dioxido-1-phenyl-3,4-dihydro-1H-2,1-benzothiazin-3-yl)-N-methylpropan-1-amine], the 50% inhibitory concentration (IC50) stood at 18.5 nM.
Same read-out and setting: for `CNCCCC1Oc2ccccc2N(c2ccc(C)cc2)S1(=O)=O` (stereo not shown) [Example 17, N-methyl-3-[1-(4-methylphenyl)-2,2-dioxido-1H-4,2,1-benzoxathiazin-3-yl]propan-1-amine] the value was 26.4 nM.
Still for that read-out and setting: as for `CNCCCC1Oc2ccc(F)cc2N(c2ccccc2)S1(=O)=O` (stereo not shown) [Example 44, 3-(7-fluoro-2,2-dioxido-1-phenyl-1H-4,2,1-benzoxathiazin-3-yl)-N-methylpropan-1-amine], the figure is 875 nM; as for `CNCCCC1Oc2ccccc2N(c2cc(C)cc(C)c2)S1(=O)=O` (stereo not shown) [Example 22, 3-[1-(3,5-dimethylphenyl)-2,2-dioxido-1H-4,2,1-benzoxathiazin-3-yl]-N-methylpropan-1-amine], 4150 nM.

Still in this test, the particulars now being: MDCK-Net6 cells, 6,000 cells/well; Conc 6000 nM (6 μM); read-out: Procedure B hNET uptake (% inhibition).
Take `O=S1(=O)C(CCNC2CCC2)Oc2ccccc2N1c1ccccc1` (stereo not shown) [Example 32, N-[2-(2,2-dioxido-1-phenyl-1H-4,2,1-benzoxathiazin-3-yl)ethyl]cyclobutanamine]: the inhibition (usually the share of the control response that was lost under treatment) at 6 µM was 54%.

The next test has as its target T1, human hNET. The test can be described thus: Functional norepinephrine reuptake assay, Procedure A (50,000 cells/well). Type of test: cell-based. The note with it: MDCK-Net6 cells, 50,000 cells/well, 16 nM 3H-norepinephrine; read-out: Procecedure A NE Uptake IC50. On the procedure:
For screening, 25 μl aliquots of compound solution at a 1 μM or 10 μM final concentration was delivered directly to cells.
For IC50 determinations, stock compounds were prepared at 10 mM from powder. The stock solution was diluted according to compound testing range. Typically, the compound testing range was from 6 nM to 6 μM by half log dilutions. On the day of assay, 25 μl of compound solution at the specified concentrations were added to the plates containing cells. A DMSO stock of desipramine was prepared at 10 mM in DMSO and diluted for a final concentration of 20 μM to determine the non-specific reuptake.
MDCK-Net6 cells, stably transfected with human hNET (Pacholczyk, 1991), were maintained in growth media [high glucose DMEM (Gibco Cat. 11995), 10% FBS (dialyzed, heat-inactivated, Sigma, dialysed, heat inactivated, Lot# K0922 or equivalent) 1xPen/Strep, and 500 μg/ml G418 (Gibco Cat. 10131)]. Cells were plated at 300,000/T75 flask and cells split twice weekly.
Cells were plated at 50,000 cells/well (Procedure A) or 6,000 cells/well (Procedure B) on day 1 in BD Falcon Microtest 96-well sterile cell culture plates, Optilux White/Clear Bottom TC plate (VWR; # 62406-466 or equivalent) in growth media and maintained in a cell incubator (37° C., 5% CO2). On Day 2, cells were removed from the cell incubator and the growth media is replaced by 200 μl of assay buffer (25 mm HEPES 120 mM NaCL; 5 mM KCl; 2.5 mM CaCl2; 1.2 mM MgSO4; 2 mg/ml glucose (pH 7.4, 37° C.)) containing 0.2 mg/ml ascorbic acid and 1 μM parglyine. For screening, 25 μl of compound in 4% DMSO was added directly to each well and the plate was incubated for 5 minutes (37° C.). To initiate the norepinephrine reuptake, 16 nM (final concentration) of ^3H norepinephrine (specific activity; 40-80 Ci/mmol) in assay buffer was delivered in 25 μl aliquots to each well, and the plates were incubated for 5 min at 37° C. The reaction is aspirated from the plate and the cells washed with 250 μl of 50 mM Tris Buffer (4° C.). The plates were left to dry for 1 hour. The cells were lysed using 0.25 M NaOH solution then placed on a shake table and vigorously shaken for 10 minutes. After cell lysis, 100 μl of Microscint 20 (PerkinElmer; #87-051101) was added to the plates and the plates were sealed with film tape and replaced on the shake table for a minimum of 10 minutes. The plates were counted in a TopCount counter (PerkinElmer).
For screening single point determinations, each compound plate contained at least 3 control wells (maximum NE reuptake determinant) and 3 non-specific wells determined by adding 20 μM of desipramine (minimum NE reuptake determinant). Determination of active compounds was calculated using a Microsoft Excel spread sheet applying the following formula:
% inhibition=[1−((mean cpm test compound wells−mean cpm non-specific wells)/(mean cpm control wells−mean cpm non-specific wells))]×100
For IC50 determination, raw cpm values were generated in a data file from the TopCount counter. The data was organized using the Microsoft Excel and transferred into PRIZM graphing and statistical program, which calculated the estimated IC50 value. Calculation of IC50 values was made using non-linear regression analysis with a sigmoidal dose response with variable slope. The statistical program used wells containing ^3H norepinephrine only as the maximal NE reuptake determinant and wells containing ^3H norepinephrine plus 20 μM desipramine (AHR-9543) as the minimal NE reuptake determinant (non-specific determinant). Estimation of the IC50 value was completed on a log scale and the line was fit between the maximal and minimal NE reuptake values.
`O=S1(=O)C(CCCN2CCCC2)Cc2ccccc2N1c1ccccc1` (stereo not shown) [Example 6, 1-phenyl-3-(3-pyrrolidin-1-ylpropyl)-3,4-dihydro-1H-2,1-benzothiazine 2,2-dioxide]: the 50% inhibitory concentration (IC50) is 133 nM.
As to `O=S1(=O)C(CCCNCc2ccccc2)Cc2ccccc2N1c1ccccc1` (stereo not shown) [Example 7, N-benzyl-3-(2,2-dioxido-1-phenyl-3,4-dihydro-1H-2,1-benzothiazin-3-yl)propan-1-amine], the IC50 stood at 3010 nM.
Turning to `NCCCC1Cc2ccccc2N(c2ccccc2)S1(=O)=O` (stereo not shown) [Example 2, 3-(2,2-dioxido-1-phenyl-3,4-dihydro-1H-2,1-benzothiazin-3-yl)propan-1-amine], the half-maximal inhibitory concentration (IC50) worked out at 233 nM.
Regarding `CN(C)CCCC1Cc2ccccc2N(c2ccccc2)S1(=O)=O` (stereo not shown) [Example 3, 3-(2,2-dioxido-1-phenyl-3,4-dihydro-1H-2,1-benzothiazin-3-yl)-N,N dimethylpropan-1-amine], the IC50 turned out to be 484 nM.
Still for that read-out and setting: as for `CCNCCCC1Cc2ccccc2N(c2ccccc2)S1(=O)=O` (stereo not shown) [Example 4, 3-(2,2-dioxido-1-phenyl-3,4-dihydro-1H-2,1-benzothiazin-3-yl)-N-ethylpropan-1-amine], the figure is 1880 nM.
For the compound `CNCCCC1Oc2ccccc2N(c2ccccc2)S1(=O)=O` (stereo not shown) [Example 12, 3-(2,2-dioxido-1-phenyl-1H-4,2,1-benzoxathiazin-3-yl)-N-methylpropan-1-amine], the half-maximal inhibitory concentration (IC50) is 33.1 nM.
Take `CNCCC[C@]1(C)Cc2ccccc2N(c2ccccc2)S1(=O)=O` (single isomer, unassigned) [Example 9]: the IC50 came out at 113 nM.
On the same count and under the same terms, as for `CNCCCC1Cc2ccccc2N(c2ccccc2)S1(=O)=O` (stereo not shown) [Example 1, 3-(2,2-dioxido-1-phenyl-3,4-dihydro-1H-2,1-benzothiazin-3-yl)-N-methylpropan-1-amine], the figure is 33.5 nM.
Regarding `CC(C)NCCCC1Cc2ccccc2N(c2ccccc2)S1(=O)=O` (stereo not shown) [Example 5, 3-(2,2-dioxido-1-phenyl-3,4-dihydro-1H-2,1-benzothiazin-3-yl)-N-isopropyl propan-1-amine], the IC50 stood at 166 nM.

Still in this test, the particulars now being: MDCK-Net6 cells, 50,000 cells/well; Conc 2000 nM.
`O=S1(=O)C(CCCNC2CCCCC2)Cc2ccccc2N1c1ccccc1` (stereo not shown) [Example 8, N-[3-(2,2-dioxido-1-phenyl-3,4-dihydro-1H-2,1-benzothiazin-3-yl)propyl]cyclohexanamine]: the “Procedure A [3H] NE Uptake Displacement %” value stood at 17%.
